Biological target: SNAP-hSPR (sepiapterin reductase, SPR) (Homo sapiens, UniProt P35270)
Test: biochemical
Type: binding
Conditions: terbium labelled SNAP-hSPR / SSZ labelled SNAP-EGFP; read-out: hTR-FRET IC50

Chain of SNAP-hSPR (sepiapterin reductase, SPR) (P35270 whole entry): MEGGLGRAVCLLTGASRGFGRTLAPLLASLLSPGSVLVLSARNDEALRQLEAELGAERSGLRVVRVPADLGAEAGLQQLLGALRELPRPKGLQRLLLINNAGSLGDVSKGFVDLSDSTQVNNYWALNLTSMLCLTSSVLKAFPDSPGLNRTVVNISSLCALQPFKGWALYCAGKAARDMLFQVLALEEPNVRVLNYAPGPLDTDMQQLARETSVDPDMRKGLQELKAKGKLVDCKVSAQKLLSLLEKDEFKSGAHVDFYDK

SMILES	IC50
Cc1c(C(=O)N2CCN(S(=O)(=O)c3ccc(Br)cc3)CC2)cnn1-c1nn2cccc2c(=O)[nH]1 [Q-1837]	1 nM
Cc1cc(=O)[nH]c(-n2ncc(C(=O)NCCc3ccc(F)cc3)c2C)n1 [Q-0007]	100 nM
Cc1c(C(=O)N2CCC2c2ccnc(F)c2)cnn1-c1nn2cccc2c(=O)[nH]1 (centres unmarked) [Q-1320]	20 nM
Cc1c(C(=O)N2CC3(C2)CC(F)(F)C3)cnn1-c1nc2c(ccn2C)c(=O)[nH]1 [Q-1306]	500 nM
Cc1c(C(=O)N2CCC(S(=O)(=O)N3CCCC3)CC2)cnn1-c1nn2cccc2c(=O)[nH]1 [Q-2007]	1 nM
Cc1c(C(=O)N2CC3CC(C2)N3CC(F)(F)F)cnn1-c1nc2[nH]ncc2c(=O)[nH]1 [Q-1560]	800 nM
Cc1c(C(=O)N2CCN(S(=O)(=O)c3cccc4c(N(C)C)cccc34)CC2)cnn1-c1nn2cccc2c(=O)[nH]1 [Q-1815]	2 nM
Cc1cc(-n2ncc(C(=O)N3CCC(C(F)(F)F)CC3)c2C)[nH]c(=O)n1 [Q-0454]	300 nM
Cc1nc(-n2ccc(C(=O)N3CCC(C(F)(F)F)CC3)n2)cc(=O)[nH]1 [Q-0437, 2-methyl-6-{3-[4-(trifluoromethyl)piperidine-1-carbonyl]-1H-pyrazol-1-yl}-3,4-dihydropyrimidin-4-one]	5000 nM
Cc1c(C(=O)O)cnn1-c1nc2ccsc2c(=O)[nH]1 [Q-0541]	200 nM
Cc1c(C(=O)N2CC3CC(C2)N3CC(F)(F)F)cnn1-c1nc2c(c(=O)[nH]1)COC2 [Q-1483]	30 nM
O=C(O)c1cnn(-c2nc3c(c(=O)[nH]2)CCC3)c1C1CC1 [Q-0544]	30 nM
Cc1c(C(=O)N2CC3(C2)CC(F)(F)C3)cnn1-c1nc2c(c(=O)[nH]1)COC2 [Q-1346]	50 nM
Cc1c(C(=O)N2CC3(C2)CC(F)(F)C3)cnn1-c1nc2[nH]ncc2c(=O)[nH]1 [Q-1295]	2400 nM
Cc1c(C(=O)O)cnn1-c1nc2c(c(=O)[nH]1)CC(C)(C)C2 [Q-1597]	5000 nM
O=c1[nH]c(-c2cc(Br)ccn2)nc2ccsc12 [Q-0540]	300 nM
Cc1c(C(=O)N2CCN(S(=O)(=O)c3cccc(C(=O)O)c3)CC2)cnn1-c1nn2cccc2c(=O)[nH]1 [Q-1845]	2 nM
Cc1c(C(=O)N2CC(N3CCC(F)(F)C3)C2)cnn1-c1nc2c(c(=O)[nH]1)CC(C)(C)C2 [Q-1564, 2-(4-(3-(3,3-difluoropyrrolidin-1-yl)azetidine-1-carbonyl)-5-methyl-1H-pyrazol-1-yl)-6,6-dimethyl-6,7-dihydro-3H-cyclopenta[d]pyrimidin-4(5H)-one]	5000 nM
Cc1c(C(=O)N2CCOCC2)cnn1-c1nc2ccccc2c(=O)[nH]1 [Q-0320]	1300 nM
CCn1ccc2c(=O)[nH]c(-n3ncc(C(=O)N4CC5CC(C4)N5CC(F)(F)F)c3C)nc21 [Q-1341]	5000 nM
Cc1c(C(=O)N2CC[C@@H]2c2ccc(F)nc2)cnn1-c1nn2cccc2c(=O)[nH]1 [Q-2054]	4 nM
COC(=O)c1cnn(-c2nc3c(c(=O)[nH]2)CC(C)(C)C3)c1C [Q-1641]	5000 nM
Cc1c(C(=O)N2CCC(c3nc(C(N)=O)cs3)CC2)cnn1-c1nn2cccc2c(=O)[nH]1 [Q-1090]	1 nM
Cc1nc(-n2ncc(C(=O)N3CCC(C(F)(F)F)CC3)c2C)cc(=O)[nH]1 [Q-0436]	4600 nM

SMILES	IC50
Cc1cc(-c2c(C)nn(CCC(=O)N3CCc4ccccc4C3)c2C)[nH]c(=O)n1 [Q-0285, 4-{3,5-dimethyl-1-[3-oxo-3-(1,2,3,4-tetrahydroisoquinolin-2-yl)propyl]-1H-pyrazol-4-yl}-6-methyl-1,2-dihydropyrimidin-2-one]	40000 nM
Cc1c(C(=O)N2CCC(C(F)(F)F)CC2)cnn1-c1nc2ccnn2c(=O)[nH]1 [Q-0447]	400 nM
Cc1c(C(=O)N2CCN(S(=O)(=O)c3cnn(C)c3)CC2)cnn1-c1nn2cccc2c(=O)[nH]1 [Q-1832]	3 nM
Cc1c(C(=O)N2CCN(S(=O)(=O)c3ccc(Cl)c(C(F)(F)F)c3)CC2)cnn1-c1nn2cccc2c(=O)[nH]1 [Q-1840]	3 nM
Cc1c(C(=O)N2CC[C@H]2c2ccc(F)nc2)cnn1-c1nn2cccc2c(=O)[nH]1 [Q-2055]	7 nM
Cc1c(C(=O)N2CCC(C(F)(F)F)CC2)cnn1-c1nc2nc[nH]c2c(=O)[nH]1 [Q-0448]	1500 nM
Cc1c(C(=O)N2CCC(S(=O)(=O)c3ccccc3)CC2)cnn1-c1nn2cccc2c(=O)[nH]1 [Q-1984]	1 nM
Cc1c(C(=O)O)cnn1-c1nc2sccc2c(=O)[nH]1 [Q-0542]	100 nM
Cc1c(C(=O)N2CCN(CC(F)(F)F)CC2)cnn1-c1nc2c(c(=O)[nH]1)CC(C)(C)C2 [Q-1563]	5000 nM
Cc1c(C(=O)N2CCN(C(=O)c3ccco3)CC2)cnn1-c1nn2cccc2c(=O)[nH]1 [Q-2032]	6 nM
Cc1c(C(=O)N2CCN(CC(F)(F)F)CC2)cnn1-c1nc2c(ccn2C)c(=O)[nH]1 [Q-1266]	200 nM
Cc1c(C(=O)N2CCN(S(=O)(=O)c3ccc(OC(F)(F)F)cc3)CC2)cnn1-c1nn2cccc2c(=O)[nH]1 [Q-1798, 2-(5-methyl-4-(4-(4-(trifluoromethoxy)phenylsulfonyl)piperazine-1-carbonyl)-1H-pyrazol-1-yl)pyrrolo[1,2-f][1,2,4]triazin-4(3H)-one]	2 nM
CC(=O)Nc1nc(C)c(S(=O)(=O)N2CCN(C(=O)c3cnn(-c4nn5cccc5c(=O)[nH]4)c3C)CC2)s1 [Q-1827]	1 nM
Cc1cc(=O)[nH]c(-n2nc(C)c(CCC(=O)N3CCCCC3C)c2C)n1 (centres unmarked) [Q-0002]	30 nM
Cc1c(C(N2CCC(C(F)(F)F)CC2)C(F)(F)F)cnn1-c1nc2c(c(=O)[nH]1)CCC2 (centres unmarked) [Q-0503, 2-(5-methyl-4-{2,2,2-trifluoro-1-[4-(trifluoromethyl)piperidin-1-yl]ethyl}-1H-pyrazol-1-yl)-3H,4H,5H,6H,7H-cyclopenta[d]pyrimidin-4-one]	4000 nM
CCn1ccc2c(=O)[nH]c(-n3ncc(C(=O)N4CC5(C4)CC(F)(F)C5)c3C)nc21 [Q-1313]	5000 nM
Cc1c(C(=O)N2CCN(S(=O)(=O)c3cnc4ccccc4c3)CC2)cnn1-c1nn2cccc2c(=O)[nH]1 [Q-1864]	4 nM
Cc1c(C(=O)N2CCN(C3COC3)CC2)cnn1-c1nn2cccc2c(=O)[nH]1 [Q-2041]	3 nM
Cc1c(C(=O)N2CCNCC2)cnn1-c1nn2cccc2c(=O)[nH]1 [Q-1251]	50 nM
Cc1cc(=O)[nH]c(-n2ncc(C(=O)N3CCC4(CCN(C)C4)C3)c2C)n1 (centres unmarked) [Q-0322]	200 nM
Cc1c(C(=O)N2CCN(c3nnc(-c4cccnc4)o3)CC2)cnn1-c1nn2cccc2c(=O)[nH]1 [Q-1150]	1 nM
Cc1cc(=O)[nH]c(-c2c(C)nn(CCC(=O)N3CCCC3)c2C)n1 [Q-0306]	25000 nM
Cc1c(C(=O)N2CCN(S(=O)(=O)c3ccc4c(c3)OCO4)CC2)cnn1-c1nn2cccc2c(=O)[nH]1 [Q-1829]	2 nM
Cc1cc2c(=O)[nH]c(-n3ncc(C(=O)N4CCC(C(F)(F)F)CC4)c3C)nc2s1 [Q-0413]	2200 nM

SMILES	IC50
COc1ccccc1NC(=O)c1cnn(-c2nc(C)cc(=O)[nH]2)c1C [Q-0004]	70 nM
Cc1c(C(=O)N2CC(N3CCC(F)(F)C3)C2)cnn1-c1nc2c(c(=O)[nH]1)COC2 [Q-1343]	70 nM
Cc1c(C(=O)NC2CCCC2)cnn1-c1nc2ccccc2c(=O)[nH]1 [Q-0321]	900 nM
Cc1c(C(=O)N2CC3CC(C2)N3CC(F)(F)F)cnn1-c1nc2c(ccn2C)c(=O)[nH]1 [Q-1365]	1000 nM
Cc1c(C(=O)N2CCN(S(=O)(=O)c3cc(C(F)(F)F)cc(C(F)(F)F)c3)CC2)cnn1-c1nn2cccc2c(=O)[nH]1 [Q-1835]	4 nM
Cc1c(C(=O)N2CCN(S(=O)(=O)c3cccc(C(F)(F)F)c3)CC2)cnn1-c1nn2cccc2c(=O)[nH]1 [Q-1826]	2 nM
Cc1cc(=O)[nH]c(-n2nc(C)c(CC(=O)N3CCCC3)c2C)n1 [Q-0301]	200 nM
Cc1c(C(=O)N2CCN(S(=O)(=O)c3ccc4ccccc4c3)CC2)cnn1-c1nn2cccc2c(=O)[nH]1 [Q-1831]	3 nM
Cc1cc(=O)[nH]c(-c2cnn(CCC(=O)N3CCc4ccccc4C3)c2)n1 (single isomer, unassigned) [Q-0291, 6-methyl-2-{1-[3-oxo-3-(1,2,3,4-tetrahydroisoquinolin-2-yl)propyl]-1H-pyrazol-4-yl}-3,4-dihydropyrimidin-4-one]	2700 nM
Cc1c(C(=O)N2CCN(S(=O)(=O)c3cc(Cl)c(Cl)s3)CC2)cnn1-c1nn2cccc2c(=O)[nH]1 [Q-1814]	2 nM
CNC(=O)c1cnn(-c2nc(C)cc(=O)[nH]2)c1C [Q-0316]	300 nM
Cc1c(C(=O)N2CC(N3CCC(F)(F)C3)C2)cnn1-c1nc2[nH]ncc2c(=O)[nH]1 [Q-1345]	1400 nM
Cc1c(C(=O)N2CCN(S(=O)(=O)c3ccc(Cl)c4nonc34)CC2)cnn1-c1nn2cccc2c(=O)[nH]1 [Q-1885]	10 nM
Cc1c(C(=O)N2CCN(CC(F)(F)F)CC2)cnn1-c1nc2[nH]ncc2c(=O)[nH]1 [Q-1296]	600 nM
Cc1c(C(=O)N2CC(N3CCC(F)(F)C3)C2)cnn1-c1nc2c(ccn2C)c(=O)[nH]1 [Q-1322]	400 nM
Cc1cc(=O)[nH]c(-c2c(C)nn(CCC(=O)N3CCc4ccccc4C3)c2C)n1 [Q-0284]	2900 nM
CCn1ccc2c(=O)[nH]c(-n3ncc(C(=O)N4CC(N5CCC(F)(F)C5)C4)c3C)nc21 [Q-1311]	5000 nM
Cc1c(C(=O)N2CCc3c(c(C(F)(F)F)nn3C)C2)cnn1-c1nn2cccc2c(=O)[nH]1 [Q-2048]	4 nM
Cc1cc2nc(-n3ncc(C(=O)N4CCc5ccccc5C4)c3C)[nH]c(=O)c2s1 [Q-0407]	1700 nM
Cc1c(C(=O)N2CCN(S(=O)(=O)c3ccc(C(F)(F)F)cc3)CC2)cnn1-c1nn2cccc2c(=O)[nH]1 [Q-1834]	1 nM
Cc1c(C(=O)N2CCN(S(=O)(=O)c3ccc(C(C)(C)C)cc3)CC2)cnn1-c1nn2cccc2c(=O)[nH]1 [Q-1800]	2 nM
CC(=O)Nc1ccc(S(=O)(=O)N2CCN(C(=O)c3cnn(-c4nn5cccc5c(=O)[nH]4)c3C)CC2)cc1 [Q-1833]	1 nM
Cc1c(C(=O)N2CCC(S(C)(=O)=O)CC2)cnn1-c1nn2cccc2c(=O)[nH]1 [Q-1985]	2 nM

— patent publication US9963462B2 (priority 2015, dated 2018)
